Experimental data published in publication PMC2765192 (Journal of medicinal chemistry, 2009).

What was measured:
human mGluR4 [1] = target: T1, human mGluR4 (Homo sapiens, UniProt Q14833); experiment: Fold shift of glutamate concentration-response curve, human mGluR4/Gqi5 cells; conditions: fold shift of glutamate response curve to the left
human mGluR4 [2] = target: T1, human mGluR4; format: cell-based; conditions: for mGluR4 PAM activity (in words): human mGluR4
[3] = Metabolic stability in rat liver microsomes; conditions: parent remaining after the incubation period
[4] = Metabolic stability in human liver microsomes; conditions: parent remaining after the incubation period
rat mGluR4 = rat mGluR4 (Rattus norvegicus, UniProt P31423)
mGluR8 = mGluR8 (Homo sapiens, UniProt O00222); experiment: mGluR subtype selectivity: mGluR8; conditions: for separation in potencies compared to mGluR4: mGluR8 vs mGluR4; for PAM activity at mGluR8 (in words): selectivity
[5] = Rat pharmacokinetics, brain and plasma levels after intraperitoneal dosing; conditions: rats, nontoxic vehicles
mGluR5 = mGluR5 (Homo sapiens, UniProt P41594); experiment: mGluR subtype selectivity: mGluR5; conditions: for separation in potencies compared to mGluR4: mGluR5 vs mGluR4; for PAM activity at mGluR5 (in words): selectivity
Sequence of mGluR5 (P41594 21-1212): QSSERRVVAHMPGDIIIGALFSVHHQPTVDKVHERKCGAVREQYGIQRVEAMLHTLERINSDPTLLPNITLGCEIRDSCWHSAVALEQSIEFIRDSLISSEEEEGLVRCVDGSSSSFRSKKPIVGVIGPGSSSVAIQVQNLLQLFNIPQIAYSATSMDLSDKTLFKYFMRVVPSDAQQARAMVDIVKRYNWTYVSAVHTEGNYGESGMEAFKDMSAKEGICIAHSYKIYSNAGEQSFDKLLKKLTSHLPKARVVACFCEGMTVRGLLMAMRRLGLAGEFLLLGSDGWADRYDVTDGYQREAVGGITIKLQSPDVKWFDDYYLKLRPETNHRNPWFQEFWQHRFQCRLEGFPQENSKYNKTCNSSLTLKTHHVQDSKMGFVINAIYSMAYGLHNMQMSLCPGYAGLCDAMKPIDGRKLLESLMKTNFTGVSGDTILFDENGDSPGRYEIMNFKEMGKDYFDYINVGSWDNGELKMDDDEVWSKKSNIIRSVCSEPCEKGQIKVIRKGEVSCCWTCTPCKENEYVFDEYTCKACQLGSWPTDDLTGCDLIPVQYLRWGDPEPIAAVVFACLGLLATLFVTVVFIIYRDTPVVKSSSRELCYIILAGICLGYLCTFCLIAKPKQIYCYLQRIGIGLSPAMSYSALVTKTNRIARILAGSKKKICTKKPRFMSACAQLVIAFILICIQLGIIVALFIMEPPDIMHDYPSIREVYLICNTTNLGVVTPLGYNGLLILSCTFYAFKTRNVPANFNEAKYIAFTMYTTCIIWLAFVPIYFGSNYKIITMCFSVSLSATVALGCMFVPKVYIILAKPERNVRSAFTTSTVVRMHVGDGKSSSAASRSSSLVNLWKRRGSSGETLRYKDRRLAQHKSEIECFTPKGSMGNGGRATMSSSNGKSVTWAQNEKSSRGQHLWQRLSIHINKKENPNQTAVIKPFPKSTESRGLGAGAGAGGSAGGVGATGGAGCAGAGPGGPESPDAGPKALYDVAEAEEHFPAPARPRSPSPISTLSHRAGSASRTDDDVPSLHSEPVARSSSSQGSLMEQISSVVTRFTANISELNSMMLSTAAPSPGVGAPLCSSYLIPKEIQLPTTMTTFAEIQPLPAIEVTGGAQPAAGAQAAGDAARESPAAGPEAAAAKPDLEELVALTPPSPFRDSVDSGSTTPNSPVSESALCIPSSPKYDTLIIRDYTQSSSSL

T1 sequence (Q14833 33-912): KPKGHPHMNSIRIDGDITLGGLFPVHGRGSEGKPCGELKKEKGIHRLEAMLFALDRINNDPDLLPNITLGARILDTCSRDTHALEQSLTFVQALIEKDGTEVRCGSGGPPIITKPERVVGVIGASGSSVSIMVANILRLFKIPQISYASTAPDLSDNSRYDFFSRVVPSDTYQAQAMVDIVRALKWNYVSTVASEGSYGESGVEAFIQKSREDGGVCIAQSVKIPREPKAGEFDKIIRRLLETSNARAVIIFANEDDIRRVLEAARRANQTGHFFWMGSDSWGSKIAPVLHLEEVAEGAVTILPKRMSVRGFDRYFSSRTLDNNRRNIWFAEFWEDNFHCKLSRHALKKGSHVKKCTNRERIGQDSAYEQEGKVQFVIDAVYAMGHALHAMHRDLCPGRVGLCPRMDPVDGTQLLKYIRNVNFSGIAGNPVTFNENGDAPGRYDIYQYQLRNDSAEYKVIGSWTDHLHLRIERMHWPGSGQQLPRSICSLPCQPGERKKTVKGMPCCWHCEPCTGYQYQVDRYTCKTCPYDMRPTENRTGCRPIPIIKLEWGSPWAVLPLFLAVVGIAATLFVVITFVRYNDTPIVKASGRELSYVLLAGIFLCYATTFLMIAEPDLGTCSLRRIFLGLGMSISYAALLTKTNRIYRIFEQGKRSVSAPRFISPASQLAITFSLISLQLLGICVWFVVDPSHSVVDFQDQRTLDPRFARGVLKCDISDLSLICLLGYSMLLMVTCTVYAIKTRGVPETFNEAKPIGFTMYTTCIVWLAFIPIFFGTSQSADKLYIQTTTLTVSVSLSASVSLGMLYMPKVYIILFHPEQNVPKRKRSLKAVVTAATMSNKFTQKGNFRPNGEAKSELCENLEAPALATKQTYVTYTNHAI
Sequence of mGluR8 (O00222 34-908, species assumed): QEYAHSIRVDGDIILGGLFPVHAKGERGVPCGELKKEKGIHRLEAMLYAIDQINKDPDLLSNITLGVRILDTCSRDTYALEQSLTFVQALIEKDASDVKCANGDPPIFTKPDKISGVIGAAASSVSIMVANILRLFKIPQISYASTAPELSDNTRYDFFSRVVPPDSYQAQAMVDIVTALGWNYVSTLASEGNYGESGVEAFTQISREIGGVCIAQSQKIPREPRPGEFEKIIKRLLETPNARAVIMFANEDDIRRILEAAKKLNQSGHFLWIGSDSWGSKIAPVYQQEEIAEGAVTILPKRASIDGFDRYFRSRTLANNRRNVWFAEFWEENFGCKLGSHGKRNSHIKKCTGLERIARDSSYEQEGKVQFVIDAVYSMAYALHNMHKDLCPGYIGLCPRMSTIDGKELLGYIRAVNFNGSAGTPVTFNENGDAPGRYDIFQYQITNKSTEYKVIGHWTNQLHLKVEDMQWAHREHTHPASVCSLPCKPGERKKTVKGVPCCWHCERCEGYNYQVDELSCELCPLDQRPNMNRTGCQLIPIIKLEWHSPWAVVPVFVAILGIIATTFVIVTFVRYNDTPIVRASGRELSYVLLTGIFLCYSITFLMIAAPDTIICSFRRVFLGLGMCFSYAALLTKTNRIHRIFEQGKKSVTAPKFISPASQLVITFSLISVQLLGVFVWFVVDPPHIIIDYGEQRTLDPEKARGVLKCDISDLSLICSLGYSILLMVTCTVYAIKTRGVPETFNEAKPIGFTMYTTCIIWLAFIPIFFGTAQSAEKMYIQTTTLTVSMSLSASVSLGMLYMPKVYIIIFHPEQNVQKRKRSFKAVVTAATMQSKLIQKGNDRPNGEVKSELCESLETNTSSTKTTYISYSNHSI
Sequence of rat mGluR4 (P31423 33-912): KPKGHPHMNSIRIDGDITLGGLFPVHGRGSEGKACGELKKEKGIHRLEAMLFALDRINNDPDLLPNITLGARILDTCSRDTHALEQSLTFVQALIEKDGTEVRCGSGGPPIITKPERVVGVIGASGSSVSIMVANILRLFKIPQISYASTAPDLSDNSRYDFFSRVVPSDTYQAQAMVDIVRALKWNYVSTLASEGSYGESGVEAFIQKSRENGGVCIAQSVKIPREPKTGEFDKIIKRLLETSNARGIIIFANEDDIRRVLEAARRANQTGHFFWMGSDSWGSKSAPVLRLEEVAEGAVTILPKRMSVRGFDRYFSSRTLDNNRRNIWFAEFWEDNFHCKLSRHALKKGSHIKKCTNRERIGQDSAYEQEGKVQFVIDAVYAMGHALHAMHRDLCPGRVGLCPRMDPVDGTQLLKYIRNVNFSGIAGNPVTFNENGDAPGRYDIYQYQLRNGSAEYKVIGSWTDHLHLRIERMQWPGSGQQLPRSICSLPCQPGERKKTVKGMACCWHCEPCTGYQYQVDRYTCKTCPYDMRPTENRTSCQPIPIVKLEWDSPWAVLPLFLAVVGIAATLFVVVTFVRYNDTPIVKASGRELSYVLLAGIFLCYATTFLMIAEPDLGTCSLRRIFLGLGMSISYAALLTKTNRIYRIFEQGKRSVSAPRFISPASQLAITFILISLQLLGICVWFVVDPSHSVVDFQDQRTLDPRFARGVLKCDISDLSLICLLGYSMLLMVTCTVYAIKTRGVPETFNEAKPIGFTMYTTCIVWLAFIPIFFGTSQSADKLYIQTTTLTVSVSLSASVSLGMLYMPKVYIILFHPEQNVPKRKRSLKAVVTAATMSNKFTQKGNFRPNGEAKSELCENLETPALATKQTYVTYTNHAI

SMILES	mGluR4 PAM activity (in words) (human mGluR4 [2])	RLM (% remaining) [3] [% remaining]	HLM (% remaining) [4] [% remaining]	also measured
O=C(Nc1ccccc1)[C@]12C[C@H]1/C(=N\O)c1ccccc1O2 [Compound 1, (-)-PHCCC]	–	–	–	FS (h) (human mGluR4 [1]): 7.0±0.2
O=C(Nc1ccc(Cl)c(Cl)c1)C1CCCCC1 [Compound 8h]	inactive	–	–	–
O=C(Nc1ccc(Cl)c(Cl)c1)c1ccccc1 [Compound 8i]	inactive	–	–	–
O=C(Nc1ccc(Cl)c(Cl)c1)c1cnccn1 [Compound 8k]	lost activity	–	–	–
O=C(Nc1ccc(Cl)c(Cl)c1)c1ccncn1 [Compound 8l]	retained potency	–	–	–
COc1cc(NC(=O)c2ccccn2)ccc1F [Compound 9a]	–	6.3	3.0	–
COc1cc(NC(=O)c2ccccn2)ccc1Cl [Compound 9b]	submicromolar potency	1.8	5.3	potency at rat mGluR4 (in words) (rat mGluR4): submicromolar potency; separation in potencies compared to mGluR4 (mGluR8): > 20 fold; PAM activity at mGluR8 (in words) (mGluR8): weak PAM activity; central penetration (in words) [5]: centrally penetrant; separation in potencies compared to mGluR4 (mGluR5): > 20 fold; PAM activity at mGluR5 (in words) (mGluR5): weak PAM activity
O=C(Nc1cccc(OC(F)F)c1)c1ccccn1 [Compound 9c]	submicromolar potency	1.4	2.4	potency at rat mGluR4 (in words) (rat mGluR4): submicromolar potency; separation in potencies compared to mGluR4 (mGluR8): > 20 fold; PAM activity at mGluR8 (in words) (mGluR8): weak PAM activity; central penetration (in words) [5]: centrally penetrant; separation in potencies compared to mGluR4 (mGluR5): > 20 fold; PAM activity at mGluR5 (in words) (mGluR5): weak PAM activity
O=C(Nc1cccc(OC(F)(F)F)c1)c1ccccn1 [Compound 9d]	–	20	22	loss of activity (human mGluR4 [2]; 9d (trifluoromethoxy) vs. 9c (difluoromethoxy)): > 10 fold
O=C(Nc1cccc(C(F)(F)F)c1)c1ccccn1 [Compound 9e]	–	19	–	–
O=C(Nc1cccc(C(F)(F)F)n1)c1ccccn1 [Compound 9o]	inactive	–	–	–
COc1cc(NC(=O)c2ccccn2)ncn1 [Compound 9p]	inactive	–	–	–
